# Assays:
# [1] = test system: Ang II-induced aortic fibrosis; assay: Ang II preventive model: aorta sections, picrosirius red; type: in vivo, mouse; conditions: Ang II two weeks, oral treatment
# Description: Ang II causes myocardial fibrosis in a short period of time (Sopel M et al., 2011, Lab. Invest., 91:565-578) characterized by collagen accumulation and after 14 days of Ang II infusion (Sigusch H H et al., 1996, Cardiovascular Research, 31:546-554). […] Subcutaneous infusion of Ang II using ALZET® osmotic pumps was used to study compound preventive effects. ALZET® osmotic minipumps (Model #2004, Charles Rives, Barcelona, Spain) delivering of Ang II (1.0 mg kg^− min^−) (Sigma-Aldrich, Madrid, Spain) for two weeks. Compound treatment was daily administered in parallel, one day before of the implantation of the subcutaneous pump, beneath the mid scapular loose skin and consisted of daily oral gavage of compound (20 mg/kg) or vehicle (Corn Oil/Maisine CC, 1/1). Mice were acclimated to manipulators for a week previously to the experiments in order to reduce stress and allow the detection of subtle changes in behavior by researchers. […] Neither piloerection nor hunched appearances were appreciated during the experimental procedures. […]
# Mice treated with Ang II presented an increase in the thickness of aortic media layer by collagen accumulation. […] Three-four random fields of each heart were photographed by standard brightfield microscopy and digitalized using a Leica DFC420c camera and analyzed using Fiji software (rsb.info.nih.gov/ij/).
# [2] = test system: Ang II-induced renal fibrosis; assay: Ang II-induced renal fibrosis, preventive model, Sirius Red; type: in vivo, mouse; conditions: Ang II 1.0 mg kg^- min^- two weeks, 20 mg/kg oral gavage
# Description: Ang II is the main peptide of the renin angiotensin system and a renal growth factor, inducing hyperplasia/hypertrophy depending on the cell type, and it induces renal fibrosis. Renal fibrosis was induced in mice by infusion of Ang II (1.0 mg kg^− min^−) for two weeks. The treatment with the compound of Formula (VIII) by oral gavage was the same as describe in Example 2. After two weeks of treatment, the mice were sacrificed under ether anesthesia. Kidney samples were collected and fixed in 4% paraformaldehyde and embedded in paraffin. The paraffin sections (5 μm) were stained with Sirius Red for evaluation of fibrosis. Subcutaneous Ang II infusion induced a significant increase of collagen content and in the mice treated with compound, the induction of fibrosis in the kidney is prevented (FIG. 10).
# [3] = test system: Ang II-induced cardiac fibrosis; assay: Ang II therapeutic model: perivascular myocardial collagen deposition; type: in vivo, mouse; conditions: Ang II 500 ng kg^- min^- 28 days, 20 mg/kg oral during last 14 days, ##p<0.01 versus Ang II group
# Description: For the therapeutic model, infusion of Ang II for four weeks and the compound of Formula (VIII) (20 mg/kg) was administrated after two weeks of pump implantation. Subcutaneous infusion of Ang II using ALZET osmotic minipumps was used to study the preventive effects of the compound ALZET® osmotic minipumps (Model #2004, Charles Rives, Barcelona, Spain) delivering of Ang II (500 ng kg^−1 min^−1) (Sigma-Aldrich, Madrid, Spain) for four weeks. Compound treatment was daily administered in parallel, two weeks after the implantation of the subcutaneous pump, beneath the midscapular loose skin and consisted of daily oral gavage of compound of Formula (VIII) (20 mg/kg) or vehicle (Corn Oil/Maisine CC, 1/1). Mice were acclimated to manipulators for a week previously to the experiments in order to reduce stress and allow the detection of subtle changes in behavior by researchers. […] Neither piloerection nor hunched appearances were appreciated during the experimental procedures. Mice were sacrificed by cervical dislocation and the heart, aorta, kidney, and lung were removed and processed for histological examination or were frozen for further analysis.
# [4] = test system: Ang II-induced pulmonary fibrosis; assay: Ang II therapeutic model: lung fibrosis, Masson's trichrome, Ashcroft score; type: in vivo, mouse; conditions: Ang II four weeks, 20 mg/kg oral last two weeks, ###p<0.001 versus Ang II group
# Description: Lung fibrosis was induced in mice by infusion of Ang II (500 ng kg^− min^−) for four weeks. The treatment with the compound of Formula (VIII) by oral gavage was the same as describe in Example 9. After two weeks of treatment, the mice were sacrificed under ether anesthesia. Lung samples were collected and fixed in 4% paraformaldehyde and embedded in paraffin. The paraffin sections (5 μm) were stained with Masson's trichrome (Merck Millipore, Darmstadt, Germany) for evaluation of fibrosis. Three-four random fields of each lung biopsy were photographed, digitalized using a Leica DFC420c camera and analyzed using Image J software in a blinded manner by two independent observers. The Ashcroft score was used to determine the degree of fibrosis in lung specimens as previously described (Ashcroft T et al., 1988, Clin. Pathol., 41:467-470; Hubner R H et al., 2008, Biotechniques, 44:507-511). Subcutaneous Ang II infusion induced pulmonary fibrosis which is prevented with compound (FIG. 15).
# hICF cells = assay: Real-time PCR of IL1b, IL6, Col1A2 and CCL2 mRNA in hICF; type: cell-based, human; conditions: induced by Ang II or TGFb in hICF cells
# Description: hICF (5×10^4 cells/cm^2) were preincubated with Compound of Formula (VIII), stimulated with Ang II for either 2 hours or 24 hours and total RNA was extracted using High Pure Isolation Kit (Roche Diagnostic, Switzerland). Total RNA (1 μg) was retrotranscribed using the iScript™ cDNA Synthesis Kit (Bio-Rad) and the cDNA analyzed using a CFX96 Real-Time PCR Detection System (Bio-Rad) by real-time PCR using the iQ™ SYBR Green Supermix (Bio-Rad). Human HPRT was used for in vitro studies to standardize the mRNA expression levels in each sample. Expression levels were calculated using the 2-ΔΔCt method. Compound of Formula (VIII) inhibited the mRNA expression of IL1b, IL6, Col1A2 and CCL2, induced by Ang II or TGFb in hICF cells (FIG. 17).
# [5] = Weight and behaviour observation during the preventive Ang II protocol; type: in vivo, mouse; conditions: 20 mg/kg daily oral gavage
# Description: Ang II causes myocardial fibrosis in a short period of time (Sopel M et al., 2011, Lab. Invest., 91:565-578) characterized by collagen accumulation and after 14 days of Ang II infusion (Sigusch H H et al., 1996, Cardiovascular Research, 31:546-554). […] Subcutaneous infusion of Ang II using ALZET® osmotic pumps was used to study compound preventive effects. ALZET® osmotic minipumps (Model #2004, Charles Rives, Barcelona, Spain) delivering of Ang II (1.0 mg kg^− min^−) (Sigma-Aldrich, Madrid, Spain) for two weeks. Compound treatment was daily administered in parallel, one day before of the implantation of the subcutaneous pump, beneath the mid scapular loose skin and consisted of daily oral gavage of compound (20 mg/kg) or vehicle (Corn Oil/Maisine CC, 1/1). Mice were acclimated to manipulators for a week previously to the experiments in order to reduce stress and allow the detection of subtle changes in behavior by researchers. […] Neither piloerection nor hunched appearances were appreciated during the experimental procedures. Mice were sacrificed by cervical dislocation and the heart, aorta, skin, and kidney were removed and processed for histological examination or were frozen for further analysis.
compound,measurement,setting,value
C=C(C)C1CCC(C)=C[C@H]1C1=C(O)C(=O)C(CCCCC)=C(NCc2ccccc2)C1=O (stereo partly shown) [Formula (VIII)],thickness of aortic media layer by collagen accumulation,[1],significantly alleviated
same,induction of fibrosis in the kidney (collagen content),[2],prevented
same,Ang II perivascular myocardial collagen deposition,[3],reduced
same,lung fibrosis (Ashcroft score),[4],reduced
same,CCL2 mRNA expression,hICF cells,inhibited
same,Col1A2 mRNA expression,hICF cells,inhibited
same,IL1b mRNA expression,hICF cells,inhibited
same,IL6 mRNA expression,hICF cells,inhibited
same,behavioral changes,[5],No behavioral changes
same,mice weight,[5]; between experimental groups,no significant changes

# From patent US20230137092A1, “Composition and Method for the Treatment and Prevention of Cardiac, Pulmonary, Dermal, and Renal Fibrosis” (EMERALD HEALTH PHARMACEUTICALS INC., priority 2020, published 2023)
